Data on one compound can be found in US20260209777A1, “TARGETING GLYCOSYLPHOSPHATIDYLINOSITOL (GPI) PATHWAY PROTEINS TO TREAT OVARIAN CANCER” (UNIVERSITY OF MASSACHUSETTS, priority 2023, published 2026).

Assay [1] deals with OVCAR8 cells. Description: Cell viability assay (PrestoBlue) in OVCAR8 cells. As to conditions: OVCAR8, 5, 10 or 20 μM bestatin vs DMSO (FIG. 6F). It counts as cell-based, human. The method, then:
Cell Viability Assay: OVCAR8 cells were transduced with a lentivirus expressing non-silencing (NS) or CD24 shRNA (Table 1) and analyzed for cell viability using PrestoBlue Cell Viability Reagent (Invitrogen™, Cat #A13261) as per the manufacturer's instructions, and relative cell growth was determined. […]

Assay [2] concerns CD24 cell surface expression in MCF7 breast cancer cells. Briefly: CD24 flow cytometry analysis in MCF7 cells. As to conditions: MCF7, 10 or 20 μM bestatin vs DMSO (FIG. 7D). It counts as cell-based, human. The method, then: Flow Cytometry Analysis: For cell surface protein staining, 1×10^5-1×10^6 cells were first incubated with Fc receptor blocking solution, Human TruStain FcX™ (BioLegend, Cat #422301) for 10 minutes at room temperature. Cells were washed once in FACS buffer (1×PBS, 1.0% bovine serum albumin (BSA) (Sigma) and 0.2% sodium azide (Sigma), and then incubated with antibodies (given below) for 30 minutes at 4° C. in the dark. Cells were also stained with 7-AAD (Biolegend, Cat #420404) for dead cell exclusion, and flow cytometry analysis was performed using a Bio-Rad ZE5 Cell Analyzer. Following antibodies used in this study (all antibodies were used at 1:50 dilution unless otherwise noted): APC anti-human CD24 (BioLegend, Cat #311118, clone ML5), PE anti-human CD24 (eBioscience, Cat #12-0247-42, clone SN3), APC anti-human CD47 (BioLegend, Cat #323124, clone CC2C6), APC anti-human § 2-microglobulin (BioLegend, Cat #395711, clone A17082A), PE anti-human HLA-A2 (MHC-class I) (BioLegend, Cat #343305, clone BB7.2), APC anti-human CD11b (BioLegend, Cat #982604, clone ICRF44), APC anti-mouse F4/80 antibody (BioLegend, Cat #123116, clone BM8), APC-streptavidin (Thermo Fisher Scientific, Cat #SA1005, 1:100 dilution), PE anti-Calreticulin (Invitrogen, Catalog #MA5-15382, 1:200 dilution). […]
(In general: In flow cytometry, cells or beads pass a laser one at a time.)

Assay [3] concerns the target T1, GPAA1 (Homo sapiens, UniProt O43292).
T1 construct: endogenous in cells; host or cells: OVCAR8 human ovarian cancer cells (Creative Biolabs, Cat #IOC-ZP305)
T1 sequence (O43292 1-621): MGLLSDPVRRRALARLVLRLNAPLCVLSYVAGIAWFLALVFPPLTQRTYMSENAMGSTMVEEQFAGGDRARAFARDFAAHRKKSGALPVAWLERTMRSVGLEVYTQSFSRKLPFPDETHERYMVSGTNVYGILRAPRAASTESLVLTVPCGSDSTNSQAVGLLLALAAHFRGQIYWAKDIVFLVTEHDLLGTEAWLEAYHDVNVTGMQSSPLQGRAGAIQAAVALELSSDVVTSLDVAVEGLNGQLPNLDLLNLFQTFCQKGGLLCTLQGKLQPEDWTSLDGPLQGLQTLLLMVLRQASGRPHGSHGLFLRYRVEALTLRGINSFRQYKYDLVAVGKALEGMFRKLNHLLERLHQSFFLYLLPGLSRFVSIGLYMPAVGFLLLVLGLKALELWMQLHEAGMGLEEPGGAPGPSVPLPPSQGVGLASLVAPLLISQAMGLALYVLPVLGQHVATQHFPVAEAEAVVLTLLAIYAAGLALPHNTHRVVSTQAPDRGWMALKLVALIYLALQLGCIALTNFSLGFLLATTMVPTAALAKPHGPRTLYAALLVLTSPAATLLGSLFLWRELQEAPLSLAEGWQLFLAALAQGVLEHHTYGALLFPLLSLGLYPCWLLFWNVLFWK
Description: Cellular thermal stability shift assay (CETSA). The settings on record: OVCAR8 cells, bestatin 100 μM for 2 hours, relative to DMSO (FIG. 6B). The class given is binding. As for the experimental part:
CETSA: CETSA assays were performed as described previously (Jafari et al., Nat Protoc 2014, 9(9):2100-22). In brief, […] OVCAR8 cells were treated with DMSO or 100 μM bestatin for 2 hours. Cells (50 μl) were aliquoted in PCR tubes and incubated at room temperature (25° C.) or at a range of temperatures (37° C. to 65.2° C.) in a thermal cycler for 3 min and cooled to 4° C. Cells were lysed using Alpha SureFire Ultra Lysis Buffer (PerkinElmer, Cat #ASLU-LB) supplemented with Halt Protease Inhibitor Cocktail (ThermoFisher Scientific, Cat #78430). Insoluble proteins were separated by centrifugation at 15000×g for 30 mins at 4° C. Equal volumes of each sample were separated by SDS-PAGE and detected by immunoblotting blotting using an anti-GPAA1 polyclonal antibody (Invitrogen, Cat #PA5-100548). Three independent experiments were performed. Densitometry of the blots was performed using ImageJ software and the graph was plotted using GraphPad Prism 9.0.
Due to the predicted structural similarity between GPAA1 and M28-type metallopeptidases, we hypothesized that GPAA1 may be inhibited by bestatin and carried out a series of experiments to test this possibility. […] The ligand-bound proteins in the soluble fraction are analyzed by immunoblotting to quantify the changes in thermal stability.

Assay [4] has as its system SKOV3 cells. Description: Cell viability assay (PrestoBlue) in SKOV3 cells. The class given is cell-based, human. The settings on record: SKOV3, 5, 10 or 20 μM bestatin vs DMSO (FIG. 6F).

As to `CC(C)C[C@H](NC(=O)[C@@H](O)[C@H](N)Cc1ccccc1)C(=O)O` [bestatin], the cell viability entry in assay [1] and in assay [4] was “no effect” each time. Besides, the “CD24 cell surface expression (MFI)” value in assay [2] was “did not decrease”. Also, the “thermal stability of GPAA1” value in assay [3] is reported as “increased”.
